A melting point compilation (Tetko et al.; mined from patent text by program, amines drawn as free bases though some values may be those of a salt)

Structure (SMILES) | melting point [°C]
COC1CCC2C3CCC4CC(C)(O)CCC4(C)C3CCC12C (centres undefined) | 151 to 154
COC(=O)C(=CNc1ccc(F)c(F)c1OCC(C)OS(=O)(=O)c1ccc(C)cc1)C(=O)OC (centres undefined) | 89 to 90
NC(=Nc1ccc(N2CCN(C(=O)NCCCCC3CCSS3)CC2)cc1)c1cccs1 (centres undefined) | 201 to 202
CC1Oc2c(F)cc(CN3CCN(c4ccc(C(=O)NC5CC5)cc4)CC3)cc2NC1=O (centres undefined) | 108 to 110
CCCCOc1ccc(/C=C/c2nc3c([nH]2)c(=O)n(CC)c(=O)n3CC)cc1 | 258 to 261
COc1ccc([N+](=O)[O-])c(NC(C(=O)O)C(c2ccccc2)c2ccccc2)n1 (centres undefined) | 172 to 180
CC(C)C[C@H](O)[C@H](O)[C@H](Cc1ccccc1)NC(=O)OC(C)(C)C | 128 to 130
C[C@H](CO)Nc1nc(SCc2cccc(C(F)(F)F)c2F)nc2[nH]c(=O)cnc12 | 217 to 219
CCC(CC)Oc1cc(C)nc(Oc2c(C)cc(C(=O)O)cc2C)c1C | 168
COC(=O)c1ccc(Cl)cc1NC(=O)CSc1ccccc1Cl | 99 to 101
CC1(C)Oc2ccc(C#N)cc2C(Oc2ccccn2)C1O (centres undefined) | 102 to 103
CCC(C(=O)c1ccc(Cl)cc1)n1ncn(-c2ccc(N3CCN(C(C)=O)CC3)cc2)c1=O (centres undefined) | 125
C=Cc1cc(C(C)NC(=O)OC(C)(C)C)ccc1NS(=O)(=O)C=C (centres undefined) | 80 to 82
Cc1cnc2ncc(-c3cccc(-c4ccccc4C#N)c3)n2n1 | 211 to 216
COc1ccc(-c2noc3c2C(c2cc(OC)c(OC)c(OC)c2)C2=C(COC2=O)N3)cc1 (centres undefined) | 218 to 219
C#Cc1cccc(Nc2c(C#N)cnc3ccc(OCCOC)c(OCCOC)c23)c1 | 150 to 153
CN(C)c1ccc(C(c2ccc(N(C)C)cc2)c2ccc(N(C)C)cc2C(=O)O)cc1 | 210 to 212
CN(C)c1nc(N(C)Cc2ccc(O)cc2)nc(N(C)Cc2ccccc2O)n1 | 80 to 81
CC(C)(C)CC(C)(C)c1ccc(OCCOCCO)c(O)c1 | 112 to 113
CCOC(=O)Cc1cc(Br)c(C(=O)c2ccc(Cl)cc2)n1C | 118 to 120
O=C1NC(=O)C(Cc2ccc(OCCc3nc(-c4ccccc4)oc3CO)cc2)S1 (centres undefined) | 98 to 99
CCOC(=O)C1=C(C)NC(C)=C(C(=O)OCCN2CCN(C(c3ccccc3)c3ccccc3)CC2)C1c1ccc(Cl)cc1 (centres undefined) | 75 to 79
CC(OC(=O)ON=C(C#N)c1ccccc1)C1CC1 (centres undefined) | 65 to 67
Cc1nc(C2OC(CO)C(O)C2O)c(N)nc1OCc1ccccc1 (centres undefined) | 152 to 153
O=C1Cc2c(cc3ccccc3c2Cl)C(c2ccccc2Cl)N1 (centres undefined) | 252 to 254

Structure (SMILES) | melting point [°C]
CC(=O)N1CCc2c(S(=O)(=O)Cl)ccc(Cl)c2C1 | 105 to 115
c1ccc2c(c1)CCN(CCSc1ccnc(CSc3nc4ccccc4[nH]3)c1)C2 | 125 to 127
CCOC(=O)C[C@@H]1c2ccccc2O[C@H]1c1ccccc1 (relative stereo) | 42 to 43
CCc1c(C(=O)C(N)=O)c2c(NCC(=O)OC)cccc2n1Cc1ccccc1 | 188 to 193
O=C(NCCCCCCCCF)N1CCC(Nc2ccc(CCNC[C@H](O)COc3ccc(O)cc3)cc2)CC1 | 78 to 80
COCCOc1cc(C(O)C#Cc2ccc(C(=O)O)cc2)cc2c1C(C)(C)CCC2(C)C (centres undefined) | 150
CCCn1c(=O)cc(NNC(=S)NC(C)=O)n(Cc2ccccc2)c1=O | 184 to 185
O=S(=O)(c1ccccc1)n1c2ccc(Br)cc2c2ccc(Cl)nc21 | 204 to 206
O=C(Nc1ccc(-n2nc(C(F)(F)F)cc2C(F)(F)F)cc1)c1ccc(Br)cc1Cl | 164 to 167
CCCOc1cc2c(cc1/C=C/c1ccc(C(=O)OCC)cc1)C(C)(C)CCC2(C)C | 97 to 100
Cc1nc2cccc(OCC(C)(C)C(=O)NCC3CC3)c2c(N)c1C(=O)O | 177 to 179
CN1CCN(C(=O)c2ccccc2C(c2ccc(O)cc2)c2ccc(O)cc2)CC1 | 226 to 231
CSC1=NC(C)C(c2ccccc2)=NN1 (centres undefined) | 159 to 160
Cc1ccc(Oc2ccncc2[N+](=O)[O-])cn1 | 87 to 90
CCCc1c(C(=O)NCc2ccc(-c3ccc(OCC(=O)O)cc3)cc2)cnn1-c1ccccc1 | 190 to 192
O=P(O)(O)Cc1ccccc1-c1ccccc1 | 168 to 169
Cc1c(Cc2cccc(C(F)(F)F)c2)oc2c(-c3cccc(C(=O)NCC(N)=O)c3)cccc12 | 194 to 195
CCC(CC)N1CCC(CNc2ccc(Cl)cc2C(=O)Nc2ccc(C)cn2)CC1 | 122 to 124
Cc1cc(C(C)(C)C)c(O)c(S(=O)(=O)Nc2ccc(C#N)c(C(F)(F)F)c2)c1 | 159 to 162
COc1ccc(C2C3=C(COC3=O)Nc3ccc4ncsc4c32)cc1O (centres undefined) | 327 to 329
CCCC1=C(C#N)C(c2cccc(C(F)(F)F)c2Cl)c2c[nH]nc2N1 (centres undefined) | > 250
CC1NC(=O)COC1=O (centres undefined) | 139 to 141
CON(O)C(=O)c1ccccc1C(F)(F)F | 101 to 103
COc1ccccc1C(=O)C=CC(=O)O | 146 to 148
Cc1ccc(NC(=O)c2cc(Cl)ccc2NCC2CCN(C3CCCCCC3)CC2)nc1 | 159 to 161

Structure (SMILES) | melting point [°C]
Cc1cccc2c1ncn2Cc1oc2ccccc2c(=O)c1-c1ccccc1 | 204 to 208
c1ccc(CN2CCOC(c3ccccc3)(c3ccccc3)CC2)cc1 | 72 to 75
C=CCOc1cc(C)c2ccc(=O)oc2c1 | 83
CCOC(=O)c1cc(O)cc(O)c1 | 128 to 130
CCOC(=O)c1cnc2cc(CC)ccc2c1O | 257 to 260
CC(=O)N1c2ccc(Cl)cc2CC1C#N (centres undefined) | 140 to 142
CS(=O)(=O)c1ncc(F)c(N)n1 | 157 to 159
CCON=Cc1cnnc2ccccc12 | 78 to 81
CC(=O)NC(NC(=O)C(F)(F)F)C(=O)NCc1ccccc1 (centres undefined) | 228 to 230
Cc1ccc(C2c3c(C)c(N4C(=O)c5cc(Cl)c(Cl)cc5C4=O)c(C)c(C)c3OC2(C)C)cc1 (centres undefined) | 157 to 159
CC(=Cc1ccc(O)c(Cl)c1)[N+](=O)[O-] | 91 to 93
CCOc1nc2ccccc2nc1N(CC)C(=O)N1CCN(c2cc(Cl)cc(Cl)c2)CC1 | 115 to 117
CCc1c(C(=O)C(=O)NC2=CC(=O)OC2)c2ccccc2n1Cc1ccc(Cl)cc1 | 192 to 195
O=c1cc(N2CCOCC2)cc(-c2ccccc2)o1 | 161 to 162
Cc1cc(OC(=S)N(C)C)nc(C(Cl)(Cl)Cl)n1 | 81 to 83
CCc1nc2c(N)nc3cccnc3c2n1CC1(O)CCN(S(C)(=O)=O)CC1 | > 255
CC(C)c1cccc(C(C)C)c1NC(=O)N(Cc1ccc(O)cc1)CC1(c2cccc(N(C)C)c2)CCCCC1 | 166 to 168
CC1=NC(NC(=O)Nc2cccc(C)c2)C(=O)N(CC(=O)C(C)(C)C)c2c(C)cccc21 (centres undefined) | 180 to 181
COc1cc2ncnc(N3CCC(=O)CC3)c2cc1OC | 176 to 178
CS(=O)(=O)c1ccc([C@@H](CC2CCCC2)C(=O)Nc2cnc(C(CO)CO)cn2)cc1Cl | 110 to 120
CCOc1ccc(-c2nc(-c3ccc(S)cc3C(=O)O)cs2)cc1OCC | 283 to 285
CC(C)(C)OC(=O)[C@H](CSSC[C@H](NC(=O)OCc1ccccc1)C(=O)OC(C)(C)C)NC(=O)OCc1ccccc1 | 77 to 78
COc1ccc2[nH]cc(CC#N)c2c1Cl | 138 to 139
O=C(NCc1ccncc1)N(c1ccccc1)c1ccccc1 | 174
COc1ccc(-c2nn(C(C)c3oc4ccccc4c(=O)c3-c3cccc(F)c3)c3ncnc(N)c23)cc1OC (centres undefined) | 232 to 235

Structure (SMILES) | melting point [°C]
CCN1CCC(O)(c2cccc(F)c2F)C1 (centres undefined) | 119 to 120
O=C(c1cc2ccccc2c(-c2ccccc2Cl)n1)N1CCCCC1 | 161
c1cc(C2=NOC(C3CC3)C2)ccn1 (centres undefined) | 102 to 108
CCCCSc1cc(C(=O)O)cc(N=Nc2cc(C(=O)O)cc(SCCCC)c2C(=O)c2ccccc2)c1C(=O)c1ccccc1 | 102 to 103
CCc1ccc(Oc2ccc([C@@H]3CCCN4CCS(=O)(=O)N=C34)cc2)cc1 | 152 to 153
CNc1cc(NS(=O)(=O)c2ccc(N)cc2)cc(C)n1 | 173 to 175
CCOC(=O)c1cnc2c(-c3ccc(Cc4cccc(OC)c4)c(OC)c3)cnn2c1O | 226 to 238
CN(O)C(=O)NCCc1ccc2c(c1)OCO2 | 99 to 100
O=C(O)Cc1coc2cc(OCc3cccc(OCc4ccc(C(F)(F)F)cc4)c3)ccc12 | 155 to 157
COc1ccc2c(c1)CCCC2n1cc[nH]c1=S (centres undefined) | 190 to 192
COc1cc2c(c3c1OC(C)(C)C3)C(c1ccc(=O)n(C)c1)=NC(C)(C)C2 | 158 to 159
Cc1oc2cc(O)ccc2c(=O)c1C(N)=O | 289 to 290
Cc1ccc(Cl)cc1-n1c(CF)nc2ccc(N)cc2c1=O | 214 to 216
COc1ccc2ccc(N3C(=O)c4ccccc4C3OCC(=O)N3CCC(O)CC3)nc2n1 (centres undefined) | 167
CN(CC[C@H]1CC[C@H](C(=O)O)CC1)C(=O)OC(C)(C)C | 212 to 214
COC(=O)C1=Cc2cccc(C3CCN(S(=O)(=O)c4ccc(C)cc4)CC3)c2CCC1 | 169 to 173
COc1ccc(SSc2ccc(OC)cc2C(N)=O)c(C(N)=O)c1 | 188 to 189
CCOC(=O)c1cn(-c2cccc(O)c2)cn1 | 164 to 165
Cc1nn(-c2cc(Oc3ccc(C#N)cc3)c(Cl)cc2F)c(=O)n1C(F)F | 175 to 177
CC(C=O)C1CCC2C3CCC4CCCCC4(C)C3CCC12C (centres undefined) | 248 to 252
CCOC(=O)CN(c1cccc2cc(-c3nccs3)[nH]c12)S(=O)(=O)c1cccs1 | 135 to 137
CC(C)OCC(O)CN1CCC2(CC1)CSC1=C(O2)c2ccccc2C(=O)C1=O (centres undefined) | 97 to 99
Nc1nc2ccnc(-c3cccc(C=O)c3)n2n1 | 205 to 208
O=C1c2ccccc2-c2c1c1ccccc1c(=O)n2CCCl | 210 to 212
